Test results taken from PubChem BioAssay (NCI).
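Protocol summary: plate cells (96-well), add compound at 5 concentrations, incubate 48 h, interpolate endpoints linearly. Here, GI50 denotes the concentration required for 50% inhibition of growth. TGI: concentration producing complete growth inhibition.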

Experiments:
Experiment in all cases: DTP human tumour cell line panel, 48 h
[1] = test system: 786-0 renal
[2] = test system: IGROV1 ovarian
[3] = test system: MOLT-4 leukemia
[4] = test system: NCI-H23 lung
[5] = test system: OVCAR-4 ovarian
[6] = test system: OVCAR-5 ovarian
[7] = test system: OVCAR-8 ovarian
[8] = test system: SF-295 CNS
[9] = test system: SN12C renal
[10] = test system: A498 renal

Row | SMILES | GI50 [1] [µM] | TGI [1] [µM] | GI50 [2] [µM] | TGI [2] [µM] | GI50 [3] [µM] | TGI [3] [µM] | GI50 [4] [µM] | TGI [4] [µM] | GI50 [5] [µM] | TGI [5] [µM] | GI50 [6] [µM] | TGI [6] [µM] | GI50 [7] [µM] | TGI [7] [µM] | GI50 [8] [µM] | TGI [8] [µM] | GI50 [9] [µM] | TGI [9] [µM] | TGI [10] [µM] | GI50 [10] [µM]
1 | CN(C)Cc1c[nH]c2c(NCCN)c3c(c(NCCN)c12)C(=O)c1ccccc1C3=O | 0.71 | 7.8 | 2.1 | 10.5 | 1.7 | > 35.7 | 2.22 | 8.99 | 8.07 | 29.6 | 5.68 | 25.1 | 0.726 | 11 | 2.49 | 8.45 | 0.372 | 1.88 |  | 
2 | C=CCC1[C@@H](C(C)(C)C(C(C)=O)C(=O)C(=O)OC)OC(C(C)(C)C)N1C(=O)OC (some centres undefined) |  | > 100 |  |  |  | 70.9 |  | > 100 |  | > 100 |  | > 100 |  | > 100 |  | > 100 |  | > 100 | > 100 | 
3 | CC(CC(=O)Nc1ccc(NC(=O)CC(C)N=NC(N)=S)cc1)N=NC(N)=S (centres undefined) |  | > 100 |  | > 100 |  | > 100 |  | > 100 |  | > 100 |  | > 100 |  | > 100 |  | > 100 |  | > 100 | > 100 | 
4 | C#CCC(N)(CO)C(=O)O (centres undefined) |  | > 100 |  | > 100 |  | > 100 |  | > 100 |  | > 100 |  | > 100 |  | > 100 |  | > 100 |  |  | > 100 | 
5 | Cl[Si]1(Cl)Oc2ccccc2O[Si](Cl)(Cl)Oc2ccccc2O1 |  | 21.5 |  | > 100 |  | 42.8 |  | 84.6 |  | 24.7 |  | > 100 |  | > 100 |  | 98.2 |  | > 100 | > 100 | 
6 | O=S(=O)(CCOCc1ccc(-c2ccc3ncnc(Nc4ccc(OCc5cccc(F)c5)c(Cl)c4)c3c2)o1)c1ccccc1 | > 25 | > 25 | > 25 | > 25 | > 25 | > 25 | > 25 | > 25 | > 25 | > 25 | > 25 | > 25 | > 25 | > 25 | > 25 | > 25 | > 25 | > 25 | > 25 | > 7
7 | Cc1cc2c(Br)cc(Br)c(O)c2nc1C(=O)c1ccccc1 |  | 28.6 |  | > 100 |  | > 100 |  | 51.1 |  | > 100 |  | > 68.5 |  | > 100 |  | > 56.4 |  | > 100 | > 100 | 
8 | CC1(Cc2ccccc2)NC(=S)NC1=O (centres undefined) |  | > 100 |  |  |  |  |  | > 100 |  |  |  | > 100 |  | > 100 |  | > 100 |  | > 100 |  | 
9 | O=C1C=C(O)c2[nH]c(=O)ccc2C1=O |  | > 100 |  | > 100 |  | > 100 |  | > 100 |  | 82.5 |  |  |  | > 100 |  | > 100 |  | > 100 | > 100 | 
10 | c1ccc2nc3c(cc4ccccn43)nc2c1 | 35.7 | > 100 | 1.81 | 26.1 | 53.1 | > 100 | 37.6 | > 100 |  |  | > 100 | > 100 | 34.8 | > 100 | 49.8 | > 100 | 70 | > 100 | > 100 | 31.4
11 | Cc1nnc(N/N=C(/C(=O)C(C#N)c2ccccc2)C(C#N)c2ccccc2)n1N (centres undefined) |  | 25 |  | > 95.9 |  | 9.28 |  | 17.8 |  | > 54.9 |  | > 57 |  | 15.2 |  | 13.7 |  | 16.6 |  | 
12 | OC(c1ccc(Br)cc1)(c1cccs1)C1CC1 (centres undefined) |  | 36 |  | 42.9 |  | 67 |  | 56.9 |  | 66.7 |  | 70.5 |  | 54.1 |  | 44.6 |  |  | 45.2 | 
13 | CCN(CC)CCNC(=O)c1cn2ncnc(Oc3ccc(NC(=O)Nc4ccc(Cl)c(C(F)(F)F)c4)c(F)c3)c2c1C | 1.95 | 3.69 | 1.85 | 3.5 |  |  | 1.62 | 3.17 | 1.74 | 3.36 | 1.86 | 3.33 | 1.95 | 3.96 | 1.66 | 3.07 | 1.69 | 3.4 | 3.28 | 1.84
14 | COc1ccc(/C=C2/CCc3cc4ccc(OC)cc4[o+]c32)c(O)c1 | 3.97 | 19.8 | 2.71 | 27.6 | 3.71 | > 100 | 10.4 | 30.1 | 5.45 | 20.6 | 17.2 | 40.3 | 2.27 | 6.13 | 16.3 | 38 | 2.51 | 7.93 |  | 
15 | Cn1cc(-c2csc(-c3cn(C)c4ccccc34)n2)c2cnccc21 | 1.95 | 3.53 | 1.61 | 3.24 |  |  | 1.64 | 3.44 | 1.46 | 11.1 | 1.77 | 3.25 | 2.68 | 6.7 | 1.63 | 3.07 | 1.66 | 3.1 | 3.88 | 2.06
16 | COC(=O)/C(C#N)=C1\CCC(C(=O)OC)N1C (centres undefined) |  | > 100 |  | > 100 |  | > 100 |  | > 100 |  | > 100 |  |  |  | > 100 |  | > 100 |  | > 100 | > 100 | 
17 | CC(C)c1ccccc1NC(=O)/C(Cl)=C1/Sc2ccccc2NC1=O |  | > 100 |  | > 100 |  | 79.8 |  | 70.8 |  | > 100 |  | > 100 |  | > 100 |  |  |  | > 100 | 93.2 | 
